Assay results reported in patent US20190022198A1, “Individualized Immunomodulation Therapy for Neurodegenerative Disorders, CNS Injury and Age-Related Dementia” (Yeda Research and Development Co. Ltd., priority 2012, published 2019).
Entries after “also recorded” stand apart in the source; their conditions may differ.

Experiments:
cultured CP cells = experiment: Immunocytochemistry of cultured CP cells treated with cytokines; assay type: cell-based, mouse
Protocol: For whole mount staining of the choroid plexus, isolated tissues were fixed with 2.5% paraformaldehyde (PFA) for several hours, and subsequently transferred to PBS containing 0.05% sodium azide. Prior to staining, the dissected tissues were washed and blocked (20% horse serum, 0.3% Triton X-100, and PBS) for 1 h at room temperature with shaking. Whole mount staining with primary (in PBS containing 2% horse serum and 0.3% Triton X-100) and secondary antibodies (in PBS), was performed for 1h at room temperature, with shaking. Each step was followed by three washes in PBS. The tissues were mounted onto slides, using Immu-mount (9990402, from Thermo), and sealed with cover-slips. For staining of sectioned brains, two different tissue preparation protocols (paraffin embedded and microtomed frozen sections) were applied, as previously described (Ziv Y et al (2006b)). For immunocytochemistry, CP cells were isolated as described above and were grown on PLL coated cover slips for 7 days, replacing the medium every 3 days. Cytokines were added for the last 3 days of culture. Following 7 days of culture, the wells were washed with PBS and the cells were fixed either with 2.5% paraformaldehyde for 30 min or methanol-acetone (1:1) for 10 min at −20° C., following by 2 washing steps with PBS. For CCL11 staining, cells were treated with Brefeldin-A 2 hours prior to fixation in order to arrest protein secretion. The cover slips of the cultured CP cells were incubated with the indicated antibodies and mounted with Glycerol Vinyl Alcohol (GVA) mounting solution (Invitrogen). The following primary antibodies were used: rat anti-CD3 (Abcam); rat anti-ICAM-1 (1:100; Abcam), chicken anti-vimentin (1:500, Millipore), rabbit anti-Iba1 (1:300; Wako), goat anti-IL-10 (1:20; R&D), mouse anti-MHC-II (Abcam); mouse anti-Arginase-1 (BD Biosciences); mouse anti-Cytokeratin (Covance); rat anti-CCL11 (R&D Systems); rabbit anti-ZO-1 (Invitrogen); and rabbit anti-Claudin-1 (Invitrogen). Secondary antibodies included: Cy2/Cy3-conjugated donkey anti-rat, mouse or rabbit antibody and Cy3 conjugated donkey anti-mouse, goat, rat, chicken or rabbit (1:200; all from Jackson Immuno Research). The slides were exposed to Hoechst stain (1:2000; Invitrogen) for 1 min. Two negative controls were routinely used in immunostaining procedures, staining with isotype control antibody followed by secondary antibody, and staining with secondary antibody alone. For morphological quantification, average cross-sectional area of epithelial cells was measured following Nissl staining. Cell borders (20-25 cells per picture) were marked and the area was quantified using Image-Pro Plus software in a blinded fashion.

CP epithelial cells = experiment: Primary culture of choroid plexus cells treated with cytokines, mRNA by real-time qPCR; assay type: cell-based, mouse; settings: for gene expression levels of trafficking molecules (ICAM-1, VCAM-1, CCL5, CXCL9, CXCL10, MHC-II): cultured CP cells from WT mice, IL-6 10 ng/ml; for expression of trafficking-related genes, escalating dosing of the cytokines: escalating dosing (data not shown); for ccl11 mRNA levels (CCL11 expression): cultured CP epithelial cells from young (3 months) mice, 24 hours after addition
Protocol: Mice were perfused from the left ventricle of the heart with PBS, and their CPs were removed under a dissecting microscope (Stemi DV4; Zeiss) in PBS into tubes containing 0.25% trypsin, and kept on ice. The tubes were shaken for 20 minutes at 37° C. and the tissue was dissociated by pipetting. The cell suspension was washed in culture medium for epithelial cells (DMEM/HAM's F12 (Invitrogen Corp)) supplemented with 10% FCS (Sigma-Aldrich), 1 mM 1-glutamine, 1 mM sodium pyruvate, 100 U/ml penicillin, […] streptomycin, 5 μg/ml Insulin, 20 μM Ara-C, 5 ng/ml sodium selenite, 10 ng/ml EGF, and cultured (˜250,000 cells/well) at 37° C., 5% CO2 in 24-well plates (Corning Incorporated) coated with poly-L-lysine (PLL; Sigma-Aldrich). After 24 hours, the medium was changed, and the cells were either left untreated, or treated with the indicated cytokines (all purchased from PeproTech): IFN-γ, IL-4, IL-10, IL-17A, GM-CSF, IL-6, IL-1β or TNF-α or their combinations for 24 h. Cell viability was quantified by Trypan blue staining after detachment of the cells with 0.25% trypsin for 10 minutes at 37° C. Neutralizing antibodies to TNF-R1 or TNF-R2 ([…], BioLegend) were added 1 h prior to the addition of TNF-α (100 ng/ml). RNA was isolated using the ZR RNA microprep kit (Zymo Research) according to the manufacturer's protocol.
Total RNA of the hippocampus was extracted with TRI reagent (MRC, Cincinnati, Ohio) and was purified from the lysates and spinal cord using the RNeasy kit (Qiagen, Hilden, Germany). Total RNA of the choroid plexus was extracted using the RNA MicroPrep kit (Zymo Research). mRNA (1 μg) was converted to cDNA using High Capacity cDNA Reverse Transcription Kit (Applied Biosystems). The expression of specific mRNAs was assayed using fluorescence based real-time quantitative PCR (qPCR). qPCR reactions were performed using Power SYBR Green PCR Master Mix (Applied Biosystems). Quantification reactions were performed in triplicates for each sample using the standard curve method. Glyceraldehyde 3-phosphate dehydrogenase (GAPDH), Peptidylprolyl isomerase A (PPIA), and hypoxanthine guanine phosphoribosyltransferase (HPRT) were chosen as reference genes according to their stability in the target tissue. The amplification cycles were 95° C. for 5 sec, 60° C. for 20 sec, and 72° C. for 15 sec. At the end of the assay, a melting curve was constructed to evaluate the specificity of the reaction. For some genes, the cDNA was pre-amplified in 14 PCR cycles with non-random PCR primers, thus increasing the sensitivity of the subsequent real-time PCR analysis (PreAmp Master Mix Kit, Applied Biosystems). For these genes, expression was determined using TaqMan Real-Time PCR, according to manufacturer's instructions (Applied Biosystems). All quantitative real-time PCR reactions were performed and analyzed using the 7500 Real-Time PCR System (Applied Biosystems). The following TaqMan probes were used: Mm02342430_g1 (ppia), Mm00446968_m1 (hprt), Mm00445260_m1 (il-4), Mm01168134_m1 (ifn-γ), Mm00441238_m1 (ccl11), Mm00475988_m1 (arg-1). In addition, the following primers were used: […]

mSOD1 mice = experiment: MOG immunization of mSOD1 mice: EAE symptoms, CP trafficking molecules, leukocytes in CSF and spinal cord, survival; assay type: in vivo, mouse
WT mice = assay type: in vivo, mouse
WT, mSOD and 5XFAD mice = experiment: Active immunization with MOG and monitoring Tregs and Th1 cells in the blood (Example 19); assay type: in vivo, mouse
Protocol: 200 μg of MOG35-55 (GL Biochem Ltd., Shanghai) are emulsified in 200 μl […] Freund's adjuvant (IFA) containing 0.5 mg/ml M. tuberculosis (strain H37Ra; BD Diagnostics), and 200 μl is injected subcutaneously to three groups of mice: WT, mSOD and 5XFAD. Control mice for each group are injected subcutaneously with PBS. At days 7, 14 and 28 post immunization, the mice are anesthetized, blood is collected into heparin containing tubes and […] of each sample are treated with ACK lysing buffer (Life Technologies) to remove erythrocytes. For intracellular staining of IFN-γ (corresponding to Th1 cells) the cells are incubated with PMA (10 ng/ml; Sigma-Aldrich) and ionomycin (250 ng/ml; Sigma-Aldrich) for 6 h, and Brefeldin-A ([…]; Sigma-Aldrich) was added for the last 4 h. Intracellular labeling is done with BD Cytofix/Cytoperm Plus Fixation/Permeabilization kit (cat. no. 555028) according to the manufacturer's protocol. For intracellular staining of Foxp3^+ T regulatory cells (Tregs), the cells are stained according to manufacturer's protocol (Mouse Regulatory T Cell Staining Kit, eBioscience, cat. No. 88-8111-40). […] Flow cytometry analysis is performed on each sample using a BD Biosciences LSRII flow cytometer, and the acquired data is analyzed using FlowJo software (Tree star). The ratio between Tregs and Th1 cells is calculated for each sample.

Foxp3-DTR mice = experiment: Foxp3+ Treg depletion by diphtheria toxin in DEREG (Foxp3-DTR) mice; assay type: in vivo, mouse
[1] = 24 hours, IFN-γ 100 ng/ml, IL-4 10 ng/ml, IL-17 100 ng/ml

With “IL-4: Th2-derived cytokine, purchased from PeproTech, added to cultured CP cells” the “epithelial tight junctions (ZO-1 staining)” value (cultured CP cells; CP epithelial cell cultures in response to IL-4 (data not shown)) was “dysregulated”, the CCL11 immunoreactivity (cultured CP cells; CP epithelium, IL-4, following Brefeldin-A treatment (data not shown)) was “produced CCL11” and the Arg1 immunostaining (cultured CP cells; IL-4 (10 ng/ml) treated CP epithelial cells) was “higher relative to untreated cells”. The “gene expression levels of trafficking molecules (ICAM-1, VCAM-1, CCL5, CXCL9, CXCL10, MHC-II)” value (CP epithelial cells; [1]) was “no effect on trafficking molecules”, the “expression of trafficking-related genes, escalating dosing of the cytokines” value (CP epithelial cells; cultured CP cells) was “None of the tested cytokines, other than IFN-γ, had any effect” and the “ccl11 mRNA levels (CCL11 expression)” value (CP epithelial cells; IL-4 10 ng/ml, IFN-γ 100 ng/ml) was “expressed high levels of CCL11”. For the same molecule, the “arginase-1 (Arg1) expression” value (CP epithelial cells; cultured CP epithelial cells, IL-4 10 ng/ml, 24 h) was “upregulated arginase-1; also recorded: dramatic effect on the upregulation of arginase-1”.

For “MOG35-55 (MEVGWYRSPFSRVVHLYRNGK; emulsified in adjuvant) [emulsified in incomplete Freund's adjuvant containing 0.5 mg/ml M. tuberculosis]”, the “total leukocyte numbers, including T cells and CD4+ T cells, in the CSF” value (mSOD1 mice; 14 days post immunization) was “increase in total leukocyte numbers”, the “expression of trafficking molecules (ICAM-1, CCL5, CXCL9, CXCL10) in the CP” value (mSOD1 mice; 14 days post immunization, compared to non-immunized mice) was “significant increase in the expression of trafficking molecules” and the “CD4+ T cell numbers in the spinal cord parenchyma” value (mSOD1 mice; 28 days post immunization) was “remained elevated”. For the same molecule, the “local expression of IL-10 in the spinal cord” value (mSOD1 mice; 28 days post immunization) was “increased local expression of IL-10”, the “spatial distribution of infiltrating T cells” value (mSOD1 mice; 28 days post immunization, immunized mSOD1 mice (data not shown)) was “T cells were found in the gray matter of the spinal cord ventral horn” and the “lifespan compared to PBS injected mice” value (mSOD1 mice; average survival age and Kaplan-Meier curves, logrank p=0.024) was “significantly longer lifespan”. The “Foxp3+ Tregs in the CSF” value (mSOD1 mice; day 28 post immunization) was “significant elevation of Tregs”, the “Foxp3+ Tregs in the spinal cord parenchyma” value (mSOD1 mice; day 28 post immunization) was “significant elevation of Tregs” and the “mice still alive at the age of 154 days” value (mSOD1 mice; immunized mSOD1 mice) was 90%. For the same molecule, the average survival (mSOD1 mice; immunized mSOD1 mice, n=10 per group) was 159.5 ± 2.2 days, the increased average survival (mSOD1 mice; immunized versus untreated mSOD1 mice) was 15 days and the “CD4+ T cells in the spinal cord parenchyma” value (mSOD1 mice; mouse, in vivo) was “increased infiltration of CD4^+ T cells”. The “expression of TGF-β1 in the spinal cord parenchyma” value (mSOD1 mice; mouse, in vivo) was “elevated”, the “infiltrating T cells in the CSF” value (WT mice; 14 days post immunization, relative to naïve or OVA-immunized mice) was “increase of infiltrating T cells” and the “expression of ICAM-1 by the CP epithelium” value (WT mice; mouse, in vivo) was “induced the expression of ICAM-1”. For the same molecule, the “ratio of Tregs to Th1 cells in blood” value (WT, mSOD and 5XFAD mice; 7 or 14 days following immunization, versus control group) was “lower” and the “ratio of Tregs to Th1 cells in blood” value (WT, mSOD and 5XFAD mice; 28 days following immunization, relative to 7 or 14 days) was “increase”.

In the case of diphtheria toxin [DTX], the “Foxp3+ T cells in the spleen, the CP and the CSF” value (Foxp3-DTR mice; DTX 8 ng/g i.p. per day for 4 days, DTR+ mice) is reported as “depleted” and the “mRNA of ICAM-1, CXCL9, CXCL10, CXCL11, MCP-1, MCSF, BDNF and IGF-1 in the CP” value (Foxp3-DTR mice; following Foxp3+ T cells depletion by DTX) is reported as “significantly upregulated”.

B1: IFN-γ: Th1-derived cytokine, purchased from PeproTech, added to cultured CP cells (protein, UniProt P01580 23-155, looked up)
Interferon gamma: HGTVIESLESLNNYFNSSGIDVEEKSLFLDIWRNWQKDGDMKILQSQIISFYLRLFEVLKDNQAISNNISVIESHLITTFFSNSKAKKDAFMSIAKFEVNNPQVQRQAFNELIRVVHQLLPESSLRKRKRSRC
For B1, the “ICAM-1 and VCAM-1 immunostaining on CP epithelial cells” value (cultured CP cells; 3 days after addition of IFN-γ (100 ng/ml)) was “elevated”, the “IL-4 induced CCL11 immunoreactivity” value (cultured CP cells; co-incubation of IFN-γ with IL-4, following Brefeldin-A treatment (data not shown)) was “reversed this induction” and the “expression of trafficking molecules (ICAM-1, VCAM-1, CCL5, CXCL10) mRNA” value (CP epithelial cells; CP epithelial cells from 70 day old WT and mSOD1 mice, IFN-γ 100 ng/ml, 24h) was “elevated the expression of trafficking molecules by both WT and mSOD1 CP cultures to a similar degree”. For the same molecule, the “expression of the chemokine CCL20” value (CP epithelial cells; CP epithelial cells, IL-17 100 ng/ml, IFN-γ 100 ng/ml, 24 h) was “not”, the “expression of trafficking molecules, IFN-γ combined with TNF-α” value (CP epithelial cells; IFN-γ 100 ng/ml combined with TNF-α 100 ng/ml, 24 hours, most of the tested genes) was “strong synergistic effect” and the “effect of IL-4 on CCL11 production” value (CP epithelial cells; IFN-γ (100 ng/ml) added together with IL-4, young CP epithelial cells, 24 hours) was “reversed the effect of IL-4 on CCL11 production”. For the same molecule, the “gene expression levels of trafficking molecules (ICAM-1, VCAM-1, CCL5, CXCL9, CXCL10, MHC-II)” value (CP epithelial cells; [1]) was “induced the upregulation of a wide array of trafficking molecules”, the “expression of TNF-R1 mRNA” value (CP epithelial cells; cultured CP cells, IFN-γ 100 ng/ml, 24 h) was “elevated the expression of TNF-R1” and the “expression of chemokines CCL2, Fractalkine (CX3CL1) and M-CSF” value (CP epithelial cells; cultured CP cells, IFN-γ 100 ng/ml, 24 hours) was “upregulated”. For the same molecule, the “expression of trafficking-related genes, escalating dosing of the cytokines” value (CP epithelial cells; cultured CP cells) was “activated the CP in a dose dependent manner”, the “basal CCL11 expression” value (CP epithelial cells; cultured CP epithelial cells from old (22 months) mice, IFN-γ 100 ng/ml, 24 hours) was “decreased basal CCL11 expression” and the “ccl11 mRNA levels (CCL11 expression)” value (CP epithelial cells; IL-4 10 ng/ml, IFN-γ 100 ng/ml) was “had no effect on CCL11 expression”.
